{"source": "patent US4639437A", "about": "“Kit or device and method for administering gangliosides and derivatives thereof by inhalation and pharmaceutical compositions suitable therefor” (Fidia, S.p.A., priority 1984, dated 1987)", "key": {"[1]": {"parameters": "species or system male Sprague Dawley rats", "details": "rat, in vivo, 0.25 mg/kg, 300 min", "description": "(§1) Two animal species were used, i.e., rats and rabbits.\n(§2) Monosialotetrahexosylganglioside GM1 labeled on the sphingosine moiety according to the method of Tettamanti et al. (in \"Gangliosides in Neurological and Neuromuscular Function, Development and Repair\" Eds. M. M. Rapport, A. Gorio, Raven Press. (N.Y.) 1981, p. 225-240) was used as a representative ganglioside molecule.\n(§3) The ganglioside mixture used was similar to the natural mixture that is obtained by extraction and purification from bovine cerebral cortex. The mixture was made up by compounding the single ganglioside fractions in the following percent proportions:\n(§4) The monosialotetrahexosylganglioside GM1 contained a ^3 H-label on sphingosine as specified under item (a) as a tracer for the mixture.\n(§5) Labeled inner ester derivative of monosialoganglioside was obtained from monosialoganglioside labeled on the sphingosine moiety according to the method cited under item (a). The inner esterification procedure according to the method described in applicant's co-pending U.S. application Ser. No. 290,106, filed on Aug. […]\nAfter treatment the animals were housed in metabolic cages. […] The total radioactivity of the samples was counted by means of a Tricarb scintillator (Packard).\n(§6) However, increased pulmonary absorption of the compounds after nebulization of the aqueous solutions was recorded (See Table 2)."}, "[2]": {"parameters": "species or system male New Zealand rabbits", "details": "rabbit, in vivo, 0.25 mg/kg, 300 min", "description": "as §1, §2, §3, §4, §5\n(§7) After treatment the animals were housed in metabolic cages. […] The total radioactivity of the samples was counted by means of a Tricarb scintillator (Packard). […]\nas §6"}, "[3]": {"parameters": "species or system male New Zealand rabbits", "details": "rabbit, in vivo, 0.25 mg/kg, 300 min", "description": "as §1, §2, §3, §4\nas §5, with “Aug. 4, 1981, was used for this labeled ganglioside to obtain the labeled inner ester derivative.” for “Aug.”\nas §7", "remark": "listed apart in the source"}, "[4]": {"parameters": "species or system male Sprague Dawley rats", "details": "rat, in vivo, 0.25 mg/kg, 300 min", "description": "as §1, §2, §3, §4\nas §5, with “Aug. 4, 1981, was used for this labeled ganglioside to obtain the labeled inner ester derivative.” for “Aug.”\nas §7", "remark": "listed apart in the source"}, "[5]": {"parameters": "species or system male New Zealand rabbits", "details": "rabbit, in vivo, 0.25 mg/kg, 300 min", "description": "as §1, §2, §3, §4\nas §5, with “Aug. 4, 1981, was used for this labeled ganglioside to obtain the labeled inner ester derivative.” for “Aug.”\nas §7", "remark": "listed apart in the source"}, "[6]": {"parameters": "species or system male Sprague Dawley rats", "details": "rat, in vivo, 0.25 mg/kg, 300 min", "description": "as §1, §2, §3, §4\nas §5, with “Aug. 4, 1981, was used for this labeled ganglioside to obtain the labeled inner ester derivative.” for “Aug.”\nas §7", "remark": "listed apart in the source"}}, "note": "Where two headings read alike, the source gives them in different places.", "data": [{"compound": "CCCCCCCCCCCCC/C=C/[C@@H](O)[C@H](CO[C@@H]1O[C@H](CO)[C@@H](O[C@@H]2O[C@H](CO)[C@H](O[C@@H]3O[C@H](CO)[C@H](O)[C@H](O[C@@H]4O[C@H](CO)[C@H](O)[C@H](O)[C@H]4O)[C@H]3NC(C)=O)[C@@H]3O[C@@]4(C[C@H](O)[C@@H](NC(C)=O)[C@H]([C@H](O)[C@H](O)CO)O4)C(=O)O[C@@H]23)[C@H](O)[C@H]1O)NC(=O)CCCCCCCCCCCCCCCCC", "note": "[Monosialoganglioside inner ester]", "values": [{"measurement": "Bioavailability (Intramuscular route = 100)", "setting": "[1]", "value": 35, "unit": "%"}, {"measurement": "Bioavailability (Intramuscular route = 100)", "setting": "[2]", "value": 33.5, "unit": "%"}, {"measurement": "Bioavailability (Intramuscular route = 100)", "setting": "[3]", "value": 11.5, "unit": "%"}, {"measurement": "Bioavailability (Intramuscular route = 100)", "setting": "[4]", "value": 80}, {"measurement": "Bioavailability (Intramuscular route = 100)", "setting": "[5]", "value": 85}, {"measurement": "Bioavailability (Intramuscular route = 100)", "setting": "[6]", "value": 12, "unit": "%"}]}, {"compound": "Monosialotetrahexosylganglioside GM1 [Monosialoganglioside]", "values": [{"measurement": "Bioavailability (Intramuscular route = 100)", "setting": "[1]", "value": 34, "unit": "%"}, {"measurement": "Bioavailability (Intramuscular route = 100)", "setting": "[2]", "value": 32, "unit": "%"}, {"measurement": "Bioavailability (Intramuscular route = 100)", "setting": "[3]", "value": 12, "unit": "%"}, {"measurement": "Bioavailability (Intramuscular route = 100)", "setting": "[4]", "value": 85}, {"measurement": "Bioavailability (Intramuscular route = 100)", "setting": "[5]", "value": 87}, {"measurement": "Bioavailability (Intramuscular route = 100)", "setting": "[6]", "value": 10.5, "unit": "%"}]}]}
